Experimental data published in US20220251079A1, “BENZO[B][1,8]NAPHTHYRIDINE ACETIC ACID DERIVATIVES AND METHODS OF USE” (STINGTHERA, INC., priority 2019, published 2022).

Experiments:
hSTING-R232 = molecular target: T1, hSTING-R232 (Homo sapiens, UniProt Q86WV6, H232R); test: STING Differential Scanning Fluorimetry (DSF) assay, human; assay type: binding; conditions: human STING R232-WT, 5 μM protein
T1 construct: recombinant mouse or human STING protein (aa140-379); 6xHis-SUMO elsewhere) (cleaved yes); made in house
Experimental: A STING DSF assay was performed to determine protein thermostability shift in response to small molecule ligand binding. A STING thermostability shift assay based on differential scanning fluorimetry was used to measure (1) the net shift in melting temperature (ΔTm)between the apo and ligand-bound states of the STING protein and (2) the concentration of the thermal denaturation transition (FC50) as a surrogate measure of binding affinity (Kd). Briefly, recombinant mouse or human STING protein (aa140-379) comprising the C-terminal binding domain (R232-WT) were purified by affinity chromatography and further processed to remove the purification tag, followed by gel filtration to achieve purity >95%. Protein in assay buffer was transferred to a 384 well plate and incubated with the hydrophobic fluorescent dye SYBR Orange. A temperature ramp was applied to the plate and the resulting dye fluorescence was plotted as a function of temperature. The first derivative of this function (dF/dT) was then used to extrapolate the melting temperature of the protein at various concentrations of compound and determine the thermal denaturation profile of a protein/compound complex.
2. 5 μM purified Target STING Protein
4. Buffer: 100 mM NaCl, 30 mM HEPES, pH 7.5
5. Thermal Ramp: 0.5° C./min
7. 11 point, 2 fold dilution, duplicate, 300 μM high concentrations

STING protein = molecular target: T2, STING protein (Homo sapiens, UniProt Q86WV6, H232R); test: Cell based reporter assay of IRF activation (THP1-dual-KI R232, IRF luciferase); conditions: THP-1; read-out: THP1-dual-KI R232_IRF(Luciferase)_Activity Maximum measured (%)
T2 construct: host or cells: THP-1 dual reporter cells, TMEM173 modified from HAQ to R232 (THP1-dual-KI R232)
From the text: Cell reporter assays were developed to measure the ability of compounds of the application to activate the STING protein and activate both IRF/IFN and the NFkB signaling pathways in the myeloid derived cell line THP-1, which is commercially available from several suppliers. Briefly, THP-1 monocytes were transfected and selected for stable integration of 2 reporter constructs. Clones incorporating stably integrated vectors were further selected by antibiotic resistance to blastocidin and zeocin. The reporter constructs included: (1) firefly luciferase reporter gene under the control of an ISG54 promoter fused to five interferon (IFN)-stimulated response elements to measure IRF transcription factor binding activity and (2) secreted embryonic alkaline phosphatase reporter gene under transcription control of an IFN-beta minimal promoter fused to 5 copies of the NFkB consensus transcriptional response element and 3 copies of the c-Rel binding site.
The resulting THP-1 cell line was further modified to incorporate 3 amino acid point mutations (H71R A230G Q293R). This modification of the native TMEM173 gene in THP-1 cells (HAQ) was designed to produce a cell reporter that expressed the most common allelic variant in the human population (THP-1 R232, available from InvivoGen). Alternatively, the TMEM173 gene was knocked out to provide a congenic control to counter-screen for compound activation that was independent of the STING protein (THP-1 STING KO).
Once cell lines were established, reporter assay protocols were developed and optimized to screen small molecule compounds for agonist activity. Assay optimization for efficacy and Z′ value included titration of the following parameters:
1. No pre-activation with PMA
2. […]cells/well in 96 well plate format
7. Cell Titer Glo reagent (Promega) following supermatant removal
9. 8 point, 2 fold, duplicate starting at 150 μM PP28T

[1] = molecular target: T3, human STING protein (140-379) (Homo sapiens, UniProt Q86WV6, H232R); test: Radiometric filtration binding competition assay (WT_FBA_HIS-SUMO-hSWAT); conditions: read-out: WT-hSWAT IC50
T3 construct: 6XHIS-SUMO-hSTING (140-379); made in house; host or cells: BL-21(DE3) E. coli, pET vector
Experimental: A radiometric filtration binding competition assay was performed to quantify the binding affinity of compounds of the present application for the human or mouse STING protein, or associated HAQ human isoform. The competition format filtration binding assay detects the ability of small molecule compounds from binding to and inhibiting the subsequent binding of a tritiated [H3] […] The resulting dose response was fit by non-linear regression to determine an IC50 value, from which a Ki value for each compound was extrapolated.
Briefly, the recombinant C-terminal ligand binding domain of the human STING protein (140-379) or mouse STING protein (139-328) [0.5 μM] was incubated in the presence of a compound of the present application (8 point, 2 fold dilution starting at 300 μM) for 30 min or under control conditions. […] The resulting complexes were then filtered, dried, and scintillation fluid was added and the remaining radio signal was measured to determine the degree of compound ligand inhibition. This assay format was optimized for both the WT and HAQ isoforms of the human protein and the mouse orthologue protein.
Parameters optimized: • a. Form of protein: 6×HIS-SUMO tag or untagged • b. Concentration of target protein: Minimum concentration that achieved >80 max signal • c. Assay DMSO concentration: 10%-0.1% • d. Assay Buffer: Base (Tris or phosphate), Salt concentration, +/−Tween (0.1-2%) • e. […] Probe Concentration: Minimum concentration that achieved max assay window • g. Assay Format: Scintillation Proximity Bead or Filtration Binding Plate • h. Assay Plate: 384 vs 96 well format • i. Assay incubation times for successive incubation steps
WT-hSWAT: WT_FBA_HIS-SUMO-hSWAT IC50 (μM) (“WT”=Wild-type); and WT-mSWAT: MOUSE_FBA_HIS-SUMO-mSWAT C50 (μM) which is the mouse isoform of STING protein.

T1 sequence (Q86WV6 140-379 H232R): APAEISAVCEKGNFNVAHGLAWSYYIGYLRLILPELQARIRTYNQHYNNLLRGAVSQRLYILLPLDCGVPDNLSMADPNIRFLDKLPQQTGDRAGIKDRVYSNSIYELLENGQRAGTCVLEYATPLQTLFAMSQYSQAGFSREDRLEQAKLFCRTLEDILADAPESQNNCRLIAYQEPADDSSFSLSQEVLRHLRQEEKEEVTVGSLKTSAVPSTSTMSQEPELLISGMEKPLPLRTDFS
T3 sequence (Q86WV6 140-379 H232R): as above
T2 sequence (Q86WV6 whole entry H232R): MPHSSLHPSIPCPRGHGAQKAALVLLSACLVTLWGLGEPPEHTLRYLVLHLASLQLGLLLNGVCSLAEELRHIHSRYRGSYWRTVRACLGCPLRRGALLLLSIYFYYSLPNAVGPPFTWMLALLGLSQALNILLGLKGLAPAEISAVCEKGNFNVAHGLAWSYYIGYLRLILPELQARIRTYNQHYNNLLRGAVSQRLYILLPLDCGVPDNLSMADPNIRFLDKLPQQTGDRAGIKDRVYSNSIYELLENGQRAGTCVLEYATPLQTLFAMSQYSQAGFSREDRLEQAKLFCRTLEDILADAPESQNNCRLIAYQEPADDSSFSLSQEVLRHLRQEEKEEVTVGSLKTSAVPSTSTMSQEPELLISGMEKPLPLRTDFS

Structure (SMILES)	WT_DSF_hSWAT Tm Shift (° C.) (hSTING-R232)	Emax (STING protein) [%]	IC50 [1] [µM]
CSc1c(Cl)ccc2c(=O)c3ccc(N(C)C4CC(F)(F)C4)nc3n(CC(=O)O)c12 [Compound 41, Sodium 2-(8-chloro-2-((3,3-difluorocyclobutyl)(methyl)amino)-9-(methylthio)-5-oxobenzo[b][1,8]naphthyridin-10(5H)-yl)acetate]	D (“D” > 7° C.)	> 50	20 to 100
CSc1c(Cl)ccc2c(=O)c3ccc(N(CC4CC4)C4CC(F)(F)C4)nc3n(CC(=O)O)c12 [Compound 42, sodium 2-(8-chloro-2-((cyclopropylmethyl)(3,3-difluorocyclobutyl)amino)-9-(methylthio)-5-oxobenzo[b][1,8]naphthyridin-10(5H)-yl)acetate]	D (“D” > 7° C.)	> 50	20 to 100
CO[C@H]1C[C@@H](N(CC2CC2)c2ccc3c(=O)c4ccc(Cl)c(SC)c4n(CC(=O)O)c3n2)C1 [Compound 43, sodium 2-(8-chloro-2-((cyclopropylmethyl)(3-methoxycyclobutyl)amino)-9-(methylthio)-5-oxobenzo[b][1,8]naphthyridin-10(5H)-yl)acetate]	D (“D” > 7° C.)	> 50	< 20
CSc1c(Cl)ccc2c(=O)c3ccc(N(C)C4CC(OC(F)F)C4)nc3n(CC(=O)O)c12 (stereo not drawn) [Compound 45, Sodium 2-(8-chloro-2-((3-(difluoromethoxy)cyclobutyl)(methyl)amino)-9-(methylthio)-5-oxobenzo[b][1,8]naphthyridin-10(5H)-yl)acetate]	D (“D” > 7° C.)	> 50	20 to 100
CSc1c(Cl)ccc2c(=O)c3ccc(N(C)C4CC(C)(C)C4)nc3n(CC(=O)O)c12 [Compound 48, sodium 2-(8-chloro-2-((3,3-dimethylcyclobutyl)(methyl)amino)-9-(methylthio)-5-oxobenzo[b][1,8]naphthyridin-10(5H)-yl)acetate]	D (“D” > 7° C.)	> 50	< 20
CSc1c(Cl)ccc2c(=O)c3ccc(N(C)C4CC(C#N)C4)nc3n(CC(=O)O)c12 (stereo not drawn) [Compound 49, sodium 2-(8-chloro-2-((3-cyanocyclobutyl)(methyl)amino)-9-(methylthio)-5-oxobenzo[b][1,8]naphthyridin-10(5H)-yl)acetate]	D (“D” > 7° C.)	> 50	20 to 100
COCCN(CC(F)(F)F)c1ccc2c(=O)c3ccc(Cl)c(SC)c3n(CC(=O)O)c2n1 [Compound 50, sodium 2-(8-chloro-2-((2-methoxyethyl)(2,2,2-trifluoroethyl)amino)-9-(methylthio)-5-oxobenzo[b][1,8]naphthyridin-10(5H)-yl)acetate]	D (“D” > 7° C.)	> 50	20 to 100
CCOc1c(Cl)ccc2c(=O)c3ccc(N(CCOC)CC(F)F)nc3n(CC(=O)O)c12 [Compound 52, sodium 2-(8-chloro-2-((2,2-difluoroethyl)(2-methoxyethyl)amino)-9-ethoxy-5-oxobenzo[b][1,8]naphthyridin-10(5H)-yl)acetate]	C (“C” = 2-7° C.)	> 50	100 to 300
CSc1c(Cl)ccc2c(=O)c3ccc(NCC4CC(F)(F)C4)nc3n(CC(=O)O)c12 [Compound 54, Sodium 2-(8-chloro-2-(((3,3-difluorocyclobutyl)methyl)amino)-9-(methylthio)-5-oxobenzo[b][1,8]naphthyridin-10(5H)-yl)acetate]	D (“D” > 7° C.)	> 50	20 to 100
CSc1c(Cl)ccc2c(=O)c3ccc(NC4CC(C#N)C4)nc3n(CC(=O)O)c12 (stereo not drawn) [Compound 56, sodium 2-(8-chloro-2-((3-cyanocyclobutyl)amino)-9-(methylthio)-5-oxobenzo[b][1,8]naphthyridin-10(5H)-yl)acetate]	D (“D” > 7° C.)	> 50	< 20

Next, values leading:

WT_DSF_hSWAT Tm Shift (° C.) (hSTING-R232)	Emax (STING protein) [%]	IC50 [1] [µM]	Structure (SMILES)
D (“D” > 7° C.)	> 50	< 20	CSc1c(Cl)ccc2c(=O)c3ccc(N(CC4CC4)C4CC(OC(F)F)C4)nc3n(CC(=O)O)c12 (stereo not drawn) [Compound 46, sodium 2-(8-chloro-2-((cyclopropylmethyl)(3-(difluoromethoxy)cyclobutyl)amino)-9-(methylthio)-5-oxobenzo[b][1,8]naphthyridin-10(5H)-yl)acetate]
D (“D” > 7° C.)	> 50	< 20	CSc1c(Cl)ccc2c(=O)c3ccc(N(C)C4CC5(CCC5)C4)nc3n(CC(=O)O)c12 [Compound 47, sodium 2-(8-chloro-2-(methyl(spiro[3.3]heptan-2-yl)amino)-9-(methylthio)-5-oxobenzo[b][1,8]naphthyridin-10(5H)-yl)acetate]
D (“D” > 7° C.)	> 50	20 to 100	COCCN(CC(F)F)c1ccc2c(=O)c3ccc(Cl)c(SC)c3n(CC(=O)O)c2n1 [Compound 51, sodium 2-(8-chloro-2-((2,2-difluoroethyl)(2-methoxyethyl)amino)-9-(methylthio)-5-oxobenzo[b][1,8]naphthyridin-10(5H)-yl)acetate]
D (“D” > 7° C.)	> 50	< 20	CN(C)c1c(Cl)ccc2c(=O)c3ccc(NCC4CC(F)(F)C4)nc3n(CC(=O)O)c12 [Compound 53, Sodium 2-(8-chloro-2-(((3,3-difluorocyclobutyl)methyl)amino)-9-(dimethylamino)-5-oxobenzo[b][1,8]naphthyridin-10(5H)-yl)acetate]
D (“D” > 7° C.)	> 50	20 to 100	CSc1c(Cl)ccc2c(=O)c3ccc(NCC4COC4)nc3n(CC(=O)O)c12 [Compound 55, sodium 2-(8-chloro-9-(methylthio)-2-((oxetan-3-ylmethyl)amino)-5-oxobenzo[b][1,8]naphthyridin-10(5H)-yl)acetate]
D (“D” > 7° C.)	> 50	< 20	CSc1c(Cl)ccc2c(=O)c3ccc(Nc4ccccc4F)nc3n(CC(=O)O)c12 [Compound 57, sodium 2-(8-chloro-2-((2-fluorophenyl)amino)-9-(methylthio)-5-oxobenzo[b][1,8]naphthyridin-10(5H)-yl)acetate]
